In patent US20240043400A1, “Octahydroisoquinolinyl Derivatives” (UCB Biopharma SRL, priority 2020, published 2024):

What was measured:
[1] = molecular target: T1, dopamine D1 receptor (Homo sapiens, UniProt P21728); test: cAMP HTRF potentiation assay (in the presence of dopamine); format: cell-based; conditions: potentiation of cAMP with [EC20] of dopamine (1.1 nM); LMtk (Ltk−) mouse fibroblast cells expressing the dopamine D1 receptor
T1 construct: host or cells: LMtk (Ltk-) mouse fibroblast cells, kept under Geneticin
Method: The potentiation assay measures the ability of compounds to increase the levels of cAMP produced by a low-threshold concentration of dopamine. The concentration of dopamine used ([EC20]) is designed to produce 20% stimulation compared to the maximal response (100%) seen with increasing the concentration of dopamine. To measure this potentiation we incubate increasing concentrations of the compound with the [EC20] of dopamine and measure the potentiation as increases in cAMP production. The pEC50 of a compound is the −log 10 of the concentration of the compound which produces 50% of the potentiation of the cAMP levels and the Erel is the relative efficacy, defined as the maximal % potentiation produced by the compound compared to the maximal response produced by increasing concentrations of dopamine (Erel of 1=dopamine maximum response).
Cells were cultured at 37° C. in a humidified atmosphere of 5% CO2. Cells were grown in DMEM-F12+GlutaMAX™-1 medium (GIBCO®, Invitrogen, Merelbeke, Belgium) containing 10% fetal bovine serum (BioWhittaker®, Lonza, Verviers, Belgium), 400 μg/mL Geneticin (GIBCO®), 100 IU/mL Penicillin and 100 IU/mL Streptomycin (Pen-Strep solution, BioWhittaker®).
The measurement of changes in intracellular cyclic adenosinemonophopshpate (cAMP) was determined using the HTRF cAMP dynamic assay kit from CisBio (Codolet, France). Using homogenous time-resolved fluoresence technology, the assay is based on competition between native cAMP produced by cells and cAMP labelled with the dye d2. The tracer binding is determined by an anti-cAMP antibody labeled with cryptate. The effects of the compound alone (agonism) was determined by performing the assay in the absence of dopamine, whilst the effect of the compound as a positive allosteric modulator (PAM) was determined in the presence of an EC20 concentration of dopamine. Cells (20,000 per well) are incubated in 384 plates for 1 h at rt in a final volume of 20 μLHBSS (Lonza, with calcium, magnesium and HEPES buffer 20 mM, pH 7.4) containing: isobutyl methylxanthine (Sigma, 0.1 mM final), varying concentrations of test compound (typically 10^−9.5 M to 10^−4.5 M) in the presence and absence of dopamine (1.1 nM final). The reaction is then terminated and the cells lysed by adding the d2 detection reagent in lysis buffer (10 μL) and the cryptate reagent in lysis buffer (10 μL) according to manufacturer's instructions. This is then incubated for a further 60 min at rt and changes in HTRF fluorescent emission ratio determined according to manufacturer's instructions using an Envision plate reader (Perkin Elmer, Zaventem, Belgium) with laser excitation. All incubations were performed in duplicate and results were compared to a concentration-effect curve to dopamine. (10^−11 M to 10^−6 M).
Data was analyzed using Excel and PRISM (GraphPad Software) to obtain pEC50 and Erel using the 4-parameter logistic equation (DeLean et al, 1978) where Erel is the fitted maximal response of the test compound minus basal expressed as a percentage relative to that obtained with dopamine which was defined as 100%.

[2] = molecular target: T2, human GABAA receptor α1β2 and γ2 subunits (Homo sapiens, UniProt P14867+P18507+P47870); test: Automated patch clamp studies on the GABAA receptor cells; format: cell-based; conditions: 15 μM GABA, Table B; for inhibition at 10 µM: CHO-K1, 10 μM compound; for % GABAA inhibition: 10 μM compound, CHO-K1 cells
T2 construct: expressed in transfected cells
Method: CHO-K1 cells stably expressing human GABAA receptor α1β2 and γ2 subunits were used. The cells were harvested using trypsin and maintained in serum-free medium at room temperature. The cells were washed and re-suspended in extracellular solution before testing.
Experiments on human GABAA (α1β2γ2) channels were conducted using an automated patch clamp assay (lonFlux™ HT). The external solution for recording GABAA currents was composed of sodium chloride 137 mM, potassium chloride 4 mM, calcium chloride 1.8 mM, magnesium chloride 1 mM, HEPES 10 mM, and glucose 10 mM. Both external and internal solutions were titrated with NaOH or KOH to obtain a pH of 7.35 and 7.3, respectively. The internal pipette solution contained potassium fluoride 70 mM, potassium chloride 60 mM, sodium chloride 70 mM, HEPES 5 mM, EGTA 5 mM, and Magnesium ATP 4 mM. The final concentration of vehicle used to dilute compounds was 0.33% DMSO in each well. Bicuculline (0.032 to 100 μM) was used as positive control inhibitor. GABA (15 μM) was used as agonist. All recordings were obtained from a holding potential of −60 mV.
The compound addition sequence was the following: one addition of the EC80 concentration of GABA was added to establish baseline response. Each concentration of compound was applied for 30 seconds followed by the addition of 15 μM GABA in the presence of the compound for 2 seconds. The process was repeated with the next ascending concentration of compound. Peak inward currents in response to the GABA additions in the presence of a single concentration of compound were measured. All compound data have been normalized to the baseline peak current induced by addition of 15 μM GABA for 2 seconds.

[3] = molecular target: T3, CYP3A4 (Homo sapiens, UniProt P08684); test: In vitro assessment of CYP3A4 inhibition potential using cryopreserved human microsomes; format: in vitro ADME; conditions: 20 μM compound, human microsomes 0.25 mg/ml, Table C; for inhibition at 15 min, 20 μM: human, cryopreserved human microsomes (pooled donors), probe midazolam 2.5 μM (1-hydroxymidazolam formation); for % CYP3A4 inhibition: midazolam 2.5 μM
T3 construct: cryopreserved human microsomes (pooled donors); from tissue
Method: The objective of the human microsome assay is to characterize the inhibition potential of Compound of formula (I) by measuring the CYP3A4 activities after its co-incubation with midazolam, a specific CYP3A4 substrate.
To this aim, cryopreserved human microsomes (pooled donors) are divided on a 48 well collagen coated plate so that the final concentration is 0.25 mg/ml. The UCB compound is then added in the wells at 20 μM concentration in duplicate. After 30 min incubation, midazolam is added at 2.5 μM concentration. After 15 min, an aliquot is removed and placed into an equal volume of methanol containing internal standard. The samples are centrifuged at 2500 rpm at 4° C. for 20 min. An aliquot of supernatant is diluted with deionised water and levels of 1-hydroxymidazolam is quantified using generic LC MS/MS methods.
The concentrations are compared to those obtained after midazolam incubation at the same concentration but without UCB compound pre-incubation. The results are expressed as % of inhibition.

T3 sequence (P08684 whole entry): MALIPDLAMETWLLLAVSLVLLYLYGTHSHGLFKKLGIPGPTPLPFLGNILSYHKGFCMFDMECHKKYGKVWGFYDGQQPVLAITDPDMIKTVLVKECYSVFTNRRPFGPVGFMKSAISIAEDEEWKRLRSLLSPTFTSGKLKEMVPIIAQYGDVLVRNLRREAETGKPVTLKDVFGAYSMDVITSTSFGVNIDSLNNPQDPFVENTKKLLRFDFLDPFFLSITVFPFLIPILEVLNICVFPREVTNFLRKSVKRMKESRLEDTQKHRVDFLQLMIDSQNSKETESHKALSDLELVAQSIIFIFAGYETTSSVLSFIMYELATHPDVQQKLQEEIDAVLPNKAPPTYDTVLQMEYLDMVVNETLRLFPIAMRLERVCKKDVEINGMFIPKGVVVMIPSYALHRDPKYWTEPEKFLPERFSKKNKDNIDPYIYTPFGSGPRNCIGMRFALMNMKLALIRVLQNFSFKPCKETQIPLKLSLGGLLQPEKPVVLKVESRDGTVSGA
T2 sequence (P14867 28-456): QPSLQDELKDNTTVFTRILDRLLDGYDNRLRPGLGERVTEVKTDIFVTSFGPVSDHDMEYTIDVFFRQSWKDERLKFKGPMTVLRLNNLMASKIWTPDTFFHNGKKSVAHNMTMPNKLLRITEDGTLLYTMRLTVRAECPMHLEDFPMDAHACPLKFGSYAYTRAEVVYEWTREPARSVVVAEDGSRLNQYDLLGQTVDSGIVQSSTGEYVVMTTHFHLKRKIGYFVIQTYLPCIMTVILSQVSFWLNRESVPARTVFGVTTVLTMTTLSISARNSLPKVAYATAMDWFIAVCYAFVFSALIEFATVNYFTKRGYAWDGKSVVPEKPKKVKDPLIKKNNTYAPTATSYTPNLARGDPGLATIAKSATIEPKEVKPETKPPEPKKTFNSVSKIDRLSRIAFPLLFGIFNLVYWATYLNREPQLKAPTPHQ
T2 sequence (P47870 25-512 limits assumed): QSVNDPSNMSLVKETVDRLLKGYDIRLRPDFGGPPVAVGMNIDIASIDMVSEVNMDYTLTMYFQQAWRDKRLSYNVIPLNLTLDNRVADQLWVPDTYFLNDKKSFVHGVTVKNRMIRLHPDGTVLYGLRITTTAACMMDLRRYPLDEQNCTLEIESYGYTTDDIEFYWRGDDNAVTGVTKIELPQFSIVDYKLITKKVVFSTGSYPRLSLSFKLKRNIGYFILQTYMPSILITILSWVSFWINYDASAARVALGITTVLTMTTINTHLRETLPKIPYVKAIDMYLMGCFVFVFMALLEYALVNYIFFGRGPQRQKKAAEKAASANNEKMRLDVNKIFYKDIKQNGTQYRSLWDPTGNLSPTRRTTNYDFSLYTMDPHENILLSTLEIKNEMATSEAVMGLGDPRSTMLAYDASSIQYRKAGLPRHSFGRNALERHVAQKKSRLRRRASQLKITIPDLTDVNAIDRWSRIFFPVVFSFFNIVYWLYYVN
T2 sequence (P18507 40-475): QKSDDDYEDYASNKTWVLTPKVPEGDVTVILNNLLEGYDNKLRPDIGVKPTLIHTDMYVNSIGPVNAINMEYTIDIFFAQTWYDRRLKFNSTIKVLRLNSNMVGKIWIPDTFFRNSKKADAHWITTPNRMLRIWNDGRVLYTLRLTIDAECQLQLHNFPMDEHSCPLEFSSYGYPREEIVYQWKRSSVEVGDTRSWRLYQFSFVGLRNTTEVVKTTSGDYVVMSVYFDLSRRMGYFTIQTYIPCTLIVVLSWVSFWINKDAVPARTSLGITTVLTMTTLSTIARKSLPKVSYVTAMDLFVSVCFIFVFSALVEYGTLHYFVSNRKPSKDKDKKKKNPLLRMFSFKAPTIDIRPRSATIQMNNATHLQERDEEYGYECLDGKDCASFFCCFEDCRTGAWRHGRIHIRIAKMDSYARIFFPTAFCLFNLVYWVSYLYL
T1 sequence (P21728 whole entry): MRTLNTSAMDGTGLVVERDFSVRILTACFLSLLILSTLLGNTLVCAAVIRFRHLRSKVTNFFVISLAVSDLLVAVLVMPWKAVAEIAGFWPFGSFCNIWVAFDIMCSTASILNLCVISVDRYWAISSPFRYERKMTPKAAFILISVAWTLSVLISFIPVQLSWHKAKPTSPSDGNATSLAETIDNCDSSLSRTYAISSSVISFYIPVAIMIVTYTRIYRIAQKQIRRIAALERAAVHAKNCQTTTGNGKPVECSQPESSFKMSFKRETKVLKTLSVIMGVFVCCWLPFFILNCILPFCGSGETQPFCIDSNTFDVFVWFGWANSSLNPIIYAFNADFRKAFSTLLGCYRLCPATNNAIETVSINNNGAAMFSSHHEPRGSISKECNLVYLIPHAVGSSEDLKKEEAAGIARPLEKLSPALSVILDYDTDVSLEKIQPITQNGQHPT

SMILES | EC50 [1] [µM] | inhibition at 10 µM [2] [%] | inhibition at 15 min, 20 μM [3] [%] | % GABAA inhibition [2] [%] | % CYP3A4 inhibition [3]
COc1ccc(C#N)c(CC(=O)N2CC[C@@H]3[C@H](CCC[C@H]3C(O)C(F)F)[C@@H]2C)c1Cl (single isomer, unassigned) [Example 6-A] | 0.0501 | 8.6 | 20 to 40 |  | 
COc1ccc(C#N)c(CC(=O)N2CC[C@@H]3[C@H](CCC[C@H]3C(O)C(F)F)[C@@H]2C)c1Cl (single isomer, unassigned) [Example 6-B] | 0.2 |  |  | 10.9 | ++++ (A percentage of inhibition greater than about 20% and lower than or equal to about 40% is indicated by ++++.)
COc1ccc(C#N)c(CC(=O)N2CC[C@@H]3[C@H](CCC[C@H]3C(C)(O)C(F)(F)F)[C@@H]2C)c1Cl (single isomer, unassigned) [Example 7-A] | 0.251 |  | 20 to 40 | 7.4 | 
C[C@H]1[C@H]2CCCC([C@@H](O)C(F)(F)F)[C@@H]2CCN1C(=O)Cc1c(Cl)ccc2c1c(Cl)nn2C (single isomer, unassigned) [Example 8-A] | 0.0794 |  | 20 to 40 | 2.0 | 
C[C@H]1[C@H]2CCCC([C@@H](O)C(F)(F)F)[C@@H]2CCN1C(=O)Cc1c(Cl)ccc2c1c(Cl)nn2C (single isomer, unassigned) [Example 8-B] | 0.126 |  |  | −1.2 | +++ (A percentage of inhibition greater than about 40% and lower than or equal to about 60% is indicated by +++.)
CC(O)c1ncc(Cl)c(CC(=O)N2CC[C@H]3[C@H]([C@H](O)C(F)(F)F)CCC[C@@H]3[C@@H]2C)c1Cl (single isomer, unassigned) [Example 9-A] | 0.0398 |  | 20 to 40 | −14.1 | 
CC(O)c1ncc(Cl)c(CC(=O)N2CC[C@H]3[C@H]([C@H](O)C(F)(F)F)CCC[C@@H]3[C@@H]2C)c1Cl (single isomer, unassigned) [Example 9-B] | 0.0251 |  |  | −8.4 | ++++ (A percentage of inhibition greater than about 20% and lower than or equal to about 40% is indicated by ++++.)
COc1ccc(C#N)c(CC(=O)N2CC[C@H]3[C@H]([C@H](O)C(F)(F)F)CCC[C@@H]3[C@@H]2C)c1Cl [Example 1-A, 2-[2-[(1S,4aR,5R,8aS)-1-methyl-5-[(1S)-2,2,2-trifluoro-1-hydroxy-ethyl]-3,4,4a,5,6,7,8,8a-octahydro-1H-isoquinolin-2-yl]-2-oxo-ethyl]-3-chloro-4-methoxybenzonitrile] | 0.0316 | 11.2 | 60 to 70 |  | 
COc1ccc(C#N)c(CC(=O)N2CC[C@H]3[C@H]([C@@H](O)C(F)(F)F)CCC[C@@H]3[C@@H]2C)c1Cl [Example 1-B, 2-[2-[(1S,4aR,5R,8aS)-1-methyl-5-[(1R)-2,2,2-trifluoro-1-hydroxy-ethyl]-3,4,4a,5,6,7,8,8a-octahydro-1H-isoquinolin-2-yl]-2-oxo-ethyl]-3-chloro-4-methoxybenzonitrile] | 0.398 | 4.9 | 40 to 60 |  | 
COc1ccc(Cl)c(CC(=O)N2CC[C@H]3[C@H]([C@H](O)C(F)(F)F)CCC[C@@H]3[C@@H]2C)c1C#N [Example 2, 2-[2-[(1S,4aR,5R,8aS)-1-methyl-5-[(1S)-2,2,2-trifluoro-1-hydroxyethyl]-3,4,4a,5,6,7,8,8a-octahydro-1H-isoquinolin-2-yl]-2-oxoethyl]-3-chloro-6-methoxybenzonitrile] | 0.0398 | 0 | 20 to 40 |  | 
COc1ncc(Cl)c(CC(=O)N2CC[C@H]3[C@H]([C@H](O)C(F)(F)F)CCC[C@@H]3[C@@H]2C)c1Cl [Example 3, 1-[(1S,4aR,5R,8aS)-1-methyl-5-[(1S)-2,2,2-trifluoro-1-hydroxy-ethyl]-3,4,4a,5,6,7,8,8a-octahydro-1H-isoquinolin-2-yl]-2-(3,5-dichloro-2-methoxypyridin-4-yl)ethanone] | 0.0251 | 13.8 | 60 to 70 |  | 
C[C@H]1[C@H]2CCC[C@@H]([C@H](O)C(F)(F)F)[C@@H]2CCN1C(=O)Nc1c(Cl)cccc1Cl [Example 10, (1S,4aR,5R,8aS)—N-(2,6-dichlorophenyl)-1-methyl-5-[(1S)-2,2,2-trifluoro-1-hydroxy-ethyl]-3,4,4a,5,6,7,8,8a-octahydro-1H-isoquinoline-2-carboxamide] | 0.0126 | 8.5 | 20 to 40 |  | 
C[C@H]1[C@H]2CCC[C@@H]([C@H](O)C(F)(F)F)[C@@H]2CCN1C(=O)Cc1c(Cl)ccc2nnc(Cl)n12 [Example 11, 1-[(1 S,4aR,5R,8aS)-1-methyl-5-[(1 S)-2,2,2-trifluoro-1-hydroxy-ethyl]-3,4,4a,5,6,7,8,8a-octahydro-1H-isoquinolin-2-yl]-2-(3,6-dichloro-[1,2,4]triazolo[4,3-a]pyridin-5-yl)ethanone] | 0.0631 | 6 | 70 to 80 |  | 
C[C@H]1[C@H]2CCC[C@@H]([C@H](O)C(F)(F)F)[C@@H]2CCN1C(=O)Cc1c(Cl)cnc(CO)c1Cl [Example 12, 1-[(1S,4aR,5R,8aS)-1-methyl-5-[(1 S)-2,2,2-trifluoro-1-hydroxy-ethyl]-3,4,4a,5,6,7,8,8a-octahydro-1H-isoquinolin-2-yl]-2-[3,5-dichloro-2-(hydroxymethyl)-4-pyridyl]ethanone] | 0.0158 | 9.6 | 20 to 40 |  | 
